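Grown in 96-well plates, cells were treated for 48 hours with each compound at five concentrations. Insufficient inhibition: endpoint recorded as highest concentration tested. Definition used: TGI = concentration required for complete inhibition of growth.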
What was measured:
Test in all cases: DTP human tumour cell line panel, 48 h
[1] = system: MCF7 breast
[2] = system: MDA-N
[3] = system: HOP-92 NSCLC
[4] = system: HOP-62 NSCLC
[5] = system: SN12C renal
[6] = system: M14 melanoma
[7] = system: A549 NSCLC
[8] = system: CAKI-1 renal
[9] = system: SK-MEL-5 melanoma
[10] = system: A498 renal
[11] = system: T-47D breast
[12] = system: U251 CNS
[13] = system: HCC-2998 colon
[14] = system: NCI-H460 lung
[15] = system: RXF 393 renal
[16] = system: SR leukemia
[17] = system: NCI-H522 lung
[18] = system: SK-MEL-2 melanoma
[19] = system: EKVX NSCLC
[20] = system: MDA-MB-435

Row | Compound | TGI [1] [µM] | TGI [2] [µM] | TGI [3] [µM] | TGI [4] [µM] | TGI [5] [µM] | TGI [6] [µM] | TGI [7] [µM] | TGI [8] [µM] | TGI [9] [µM] | TGI [10] [µM] | TGI [11] [µM] | TGI [12] [µM] | TGI [13] [µM] | TGI [14] [µM] | TGI [15] [µM] | TGI [16] [µM] | TGI [17] [µM] | TGI [18] [µM] | TGI [19] [µM] | TGI [20] [µM]
1 | Cc1ccc(C(=O)N/N=C(\N=Nc2cccc([N+](=O)[O-])c2)c2ccc(N(CCC#N)CCC#N)cc2C)cc1 | > 68.1 | > 78.4 | > 100 | 79.7 | > 100 | > 67.6 | > 100 | > 100 | 28.6 | > 81.6 | 50.7 | > 100 | > 100 | > 100 | 60.7 | > 100 | > 100 | > 77.3 | > 69.4 | 54.3
2 | O=C1OC(CCCN2CCCCC2)(c2ccccc2)CC12CCCC2 (stereo not given) | > 100 | > 100 | > 90.8 | > 100 | > 100 | 34.3 | > 100 | > 100 | 33.8 | 98.4 | > 100 | > 100 | > 100 | > 100 | > 100 | > 100 | > 100 | > 100 | > 100 | > 100
3 | O=C(O)c1c2c(cc3c1CC(Cc1ccccc1)C3=O)CCC2 (stereo not given) | > 100 | > 100 | > 100 | > 100 | > 100 | > 100 | 38 | > 100 | > 100 | > 100 | > 100 | > 100 | > 100 | > 100 | > 100 | > 100 | > 100 | > 100 | > 100 | > 100
4 | O=[N+]([O-])c1ccc(CSc2nncc3[nH]cnc23)cc1 | > 100 | > 100 | 67.1 | > 100 | > 100 | > 100 | > 100 | > 100 | > 100 | > 100 | > 100 | > 100 | > 100 |  |  | > 100 | > 100 | > 100 | > 100 | > 100
5 | Cc1ccc(C2(O)CSC(=NC34CC5CC(CC(C5)C3)C4)N2C(P(=O)(O)O)P(=O)(O)O)cc1 (stereo not given) | > 100 | > 100 | > 100 | > 100 | > 100 | > 100 | > 100 | > 100 |  | > 100 | > 100 | > 100 | > 100 | > 100 |  | > 100 |  | > 100 | > 100 | > 100
6 | Cc1ccc(C(=O)O)c(/C=C2\Cc3ccc(C)cc3C2=O)c1 | > 100 | > 100 | > 100 | > 100 | > 100 | > 100 | > 100 | > 100 | > 100 | > 100 | > 100 | > 100 | > 100 | > 100 | > 100 | > 100 | > 100 | > 100 | > 100 | > 100
7 | CC1(C)N/C(=C\[N+](=O)[O-])C(C)(C)N1O | > 10 | > 10 | > 10 | > 10 | > 10 | > 10 | > 10 | > 10 | > 10 | > 10 | > 10 | > 10 | > 10 | > 10 | > 10 | > 10 | > 10 | > 10 | > 10 | > 10
8 | COC(=O)C1=C(OC(=O)/C(=C/c2ccccc2)c2ccc(Cl)cc2Cl)C(C(=O)OC)[C@@]2(O)[C@@H](C(=O)OC)[C@H](C)C[C@@H]1[C@@H]2C(=O)OC (stereo not given in full) | > 100 | > 100 | > 100 | > 100 | > 100 | > 100 | > 100 | > 100 | > 100 | > 100 | > 100 | > 100 | > 100 | > 100 | > 100 | > 100 | > 100 | > 100 | > 100 | > 100
9 | Cc1c(-c2ccccc2)cc(O)c2nc3ccccc3n12 | > 100 | > 100 | > 100 | > 100 | > 100 | > 100 | > 100 | > 100 | > 100 | > 100 | > 100 | > 100 | > 100 | > 100 | > 100 | > 100 | > 100 |  | > 100 | > 100
10 | CS(=O)(=O)C(C#N)c1nc2ccccc2nc1Cl (stereo not given) | > 100 | > 100 | > 100 | > 100 | > 100 | > 100 | > 100 | > 100 | > 27.1 | > 100 | > 100 | > 100 | > 100 | > 100 | > 100 | > 100 | > 100 | > 100 | > 100 | > 100
11 | COC(=O)c1csc([C@@H](OC(=O)[C@H](C)[C@H](CCCC(C)(Cl)Cl)OC(=O)c2csc([C@H](O)CO)n2)C(C)C)n1 | 35 | 21.3 | 23 | 33.6 | 4.41 | 31.6 | 32.1 | 32.7 | 31.8 | 32.7 | 36.5 | 32 | 22.2 | 23.2 | 4.53 | 32.2 | 32.9 | 28.9 | 33.4 | 26.8
12 | CC(=O)OCC1OC(N2C(C)=C(C(C)=O)C(c3ccc(Cl)cc3)C(C#N)=C2S)C(OC(C)=O)C(OC(C)=O)C1OC(C)=O (stereo not given) | > 100 | > 100 | > 100 | > 100 | > 100 | > 100 | > 100 | > 100 | > 100 | > 100 | > 100 | > 100 | > 100 | > 100 | > 100 | > 100 | > 100 | > 100 |  | > 100
13 | O=C1C2=Cc3ccccc3OC2(O)Oc2cc3ccccc3cc21 (stereo not given) | > 100 | > 100 | > 100 | > 100 | > 100 | > 100 | > 100 | > 100 | > 100 | > 100 | > 100 | > 100 | 74.9 | > 100 | > 100 | > 100 |  | > 100 | > 100 | > 100
14 | CCCCCCCC(CC(=O)NC(CO)C(=O)NC(CO)CC(C)C)OC(=O)CC(CCCCCCC)OC(=O)CC(CCCCCCC)OC1OC(C)C(O)C(OC2OC(C)C(OC(C)=O)C(O)C2O)C1O (stereo not given) | 23.8 | 14 | 21 | 31.2 | 18.6 | 13.8 | 23.8 | 29 | 21.8 | 23.5 | 23.1 | 14.7 | 17.2 | 15.6 | 16.9 | 6.22 | 24.7 |  | 28.2 | 19.4
15 | C=CCn1c(N)c(C#N)c(C#N)c1CCC | > 100 | > 100 | > 100 | > 100 | > 100 | > 100 | > 100 | > 100 | > 100 | > 100 | > 100 | > 100 | > 100 |  | > 100 | > 100 | > 100 | > 100 | > 100 | > 100
16 | O=c1[nH]c2cc(C(F)(F)F)ccc2nc1C(F)(F)F | > 100 | > 100 | 45.2 | 76.7 | > 100 | > 100 | > 100 | 89.9 | 35.7 | > 100 | > 100 | > 100 | > 100 | > 100 | 58.2 | > 100 | 99.1 | 79.3 | > 100 | 85.2
17 | O=C(/C=C/c1ccc(O)c(O)c1)OCC(OC(=O)/C=C/c1ccc(O)c(O)c1)C(=O)O (stereo not given) | > 100 | > 100 | > 100 | > 100 | > 100 | > 100 | > 100 | > 100 | > 100 | > 100 | > 100 | > 100 | > 100 | > 100 | > 100 | > 100 | > 100 | > 100 | > 100 | > 100
18 | CCOC(=O)/C=C(\C(=O)OCC)n1cc(C)c(=O)n(Cc2cn(CCCCOC(C)=O)nn2)c1=O | 24.8 | 50.9 | 4.7 | 37.4 | > 56.7 | 27 | 36.1 | 10.4 | > 53.1 | 33 | > 47.5 | 37 | 34 | 26 | 7.5 | 14.5 | 3.01 | 36.4 | 24.2 | 28.6
19 | CS(=O)(=O)Nc1ccc2ccccc2c1-c1c(NS(C)(=O)=O)ccc2ccccc12 | > 25 | > 25 | > 25 | > 25 | > 25 | > 25 | > 25 | > 25 | > 25 | > 25 | > 25 | > 25 | > 25 | > 25 | > 25 | > 25 | > 25 | > 25 | > 25 | > 25
20 | CCOC(=O)c1ccc(N=C/C=C(\Nc2ccc(C(=O)OCC)cc2)C23CC4CC(CC(C4)C2)C3)cc1 | > 100 | > 100 | > 100 | > 100 | > 100 | > 100 | > 100 | > 100 | > 100 | > 100 | > 100 | > 100 | > 100 | > 100 | > 100 | > 100 | > 100 | > 100 | > 100 | > 100
21 | COC1(OC)N=C(N)C2(C#N)C(c3ccccc3)NC3=C(CCC3)C12C#N (stereo not given) | > 100 | > 100 | > 100 | > 100 | > 100 | > 100 | > 100 | > 100 | > 100 | > 100 | > 100 | > 100 | > 100 | > 100 | > 100 | > 100 | > 100 | > 100 | > 100 | > 100
22 | CC(C)NC(=O)OCc1c2c(n(C)c1COC(=O)NC(C)C)-c1cc(Cl)c(Cl)cc1CC2 | 45.2 | > 100 | 70.9 | > 100 | > 100 | 66.6 | > 100 |  | > 100 | 18.7 | > 100 | 40.6 | 32.7 | > 100 | 94.8 | > 100 |  | 72.8 | > 100 | > 100
23 | O=C(CSc1nnc(-c2ccccn2)s1)N/N=C/c1ccccc1 | > 100 | > 100 | > 100 | > 100 | > 100 | > 100 | > 100 | > 100 | > 100 | > 100 | > 100 | > 100 |  | > 100 |  | > 100 | > 100 | > 100 |  | > 100
